Assay results from paper PMC4736399 (Oxidative Medicine and Cellular Longevity, 2016).
Several values for one entry are separate records, joined by “and”; a condition that tells them apart may be missing. Equal entries are not always repeated. Structures can show the parent of a compound that is named as a salt.

Assays:
MAO [1] = assay: Amplex Red fluorometric detection of tyramine-induced hydrogen peroxide release in human adipose tissue homogenates; type: biochemical; conditions: for effect on tyramine-induced H2O2 release: 1 mM tyramine, hAT homogenates, Amplex Red, inhibitors 1 μM to 1 mM
Description: (§1) Oxidase activity was measured using the fluorescent probe Amplex Red (10-acetyl-3,7-dihydrophenoxazine) designed for the detection of hydrogen peroxide in biological milieu. Assays were performed accordingly to our previous descriptions, which corresponded to slight modifications from the adaptation of such fluorometric method for MAO activity determination. Briefly, hydrogen peroxide release was quantified owing to a chromogenic mixture containing 40 μM Amplex Red and 4 U/mL horseradish peroxidase and to the parallel use of hydrogen peroxide standard solutions ranging from 0.05 to 5 μM (final concentrations). Thawed hAT samples were homogenized in 200 mM phosphate buffer (pH 7.4) during 30 sec with a homogenizer Tissue Master-125 (Omni International, Kennesaw, GA, USA) just prior to the determination of their amine oxidase activity, as previously reported, except that no antiprotease cocktail was added. Homogenates were distributed in 96-well dark microplates (at 50 ± 5 μg protein/well) and incubated at 37°C in the dark for at least 30 min in 200 μL final volume after a 30 min preincubation without (control) or with 1 mM pargyline or semicarbazide to inhibit MAO or SSAO activity, respectively, or even with both reference inhibitors to abolish all AO activity. All phenolic compounds tested for their inhibitory properties were also added during this preincubation step. Tyramine or benzylamine was added to the medium in order to obtain 1 mM concentration and to serve as substrates for AO activities, as already stated.
(§2) Spontaneous hydrogen peroxide formation by homogenates of thawed material was also quantified without any addition of exogenous amine or inhibitor and defined as basal release. The influence of chemical compounds or biochemical agents on the fluorescence readouts generated by the hydrogen peroxide standard curve was also performed without any presence of hAT in a set of experiments called “without biological material.” In all cases, fluorescence data (ex/em: 540/590 nm) were collected on a Fluoroskan Ascent plate reader (ThermoLabsystems, Finland).

MAO [2] = assay: Radiochemical assay of [14C]-tyramine oxidation by hAT homogenates; type: biochemical, human; conditions: 1 mM [14C]-tyramine, 30 min
Description: (§3) Samples of adipose tissue were homogenized as described above. 50 μL of crude homogenates were then incubated for 30 min at 37°C in 200 μL of 200 mM phosphate buffer in the presence of radiolabelled amine after 30 min preincubation without or with inhibitor(s). MAO-dependent oxidation was defined as sensitive to inhibition by 1 mM pargyline, whereas SSAO-dependent oxidation was abolished by 1 mM semicarbazide. Assays were started by addition of the labelled substrate and stopped by adding 50 μL of 4 M HCl. Reaction products of amine oxidation were extracted by 1 mL of organic solvent (toluene/ethyl acetate, 1/1 v/v), according to Tipton's method. Then, 0.7 mL aliquots of the organic phase were counted for radioactivity. Maximal velocity and optimal conditions for determination of amine oxidase activities have been already detailed for human adipocytes, cultured preadipose cells, or hAT homogenates. Thus, inhibition studies were performed only under conditions reaching maximal oxidation velocity, that is, corresponding to the use of tyramine or benzylamine isotopic dilutions giving 1 mM final concentration and reaching approximately 640000 dpm/50 μL for [^14C]-tyramine (provided either by PerkinElmer, Evry, France, or by Sigma-Aldrich) or 200000 dpm/50 μL for [^14C]-benzylamine (NEC 835050UC purchased from PerkinElmer). The radioactivity extracted in the organic phase at time 0 (t0) represented less than 0.5% of the total radioactivity/tube of each labelled amine and was subtracted to all counts with tyramine and benzylamine oxidation without inhibitor averaging 14160 ± 5620 dpm (n = 16) and 15800 ± 1770 dpm (n = 12), respectively. These absolute values, which varied substantially from one individual to another, were set as 100% reference in each subject for the calculation of percentages of inhibition.
Figure 5 Influence of phenolic compounds and MAO inhibitors or SSAO inhibitors on tyramine oxidation by hAT. The production of radiolabelled aldehydes resulting from the 30 min incubation of fat tissue homogenates with 1 mM isotopic dilution of [^14C]-tyramine was set at 100% in the absence of added inhibitor, while the background radioactivity detected at t0 was set at 0%. (a) Inhibition by pargyline only of MAO-dependent tyramine oxidation. (b) Influence of phenolic compounds on tyramine oxidation. Each point is the mean ± SEM of 8 (inhibitors) to 12 (phenolic compounds) homogenates.

SSAO/VAP-1 = target: T1, SSAO/VAP-1 (Homo sapiens, UniProt Q16853); assay: Radiochemical assay of [14C]-benzylamine oxidation by hAT homogenates; type: biochemical; conditions: 1 mM [14C]-benzylamine, 30 min, up to 1 mM
T1 construct: benzylamine oxidation by hAT preparations, naturally rich in SSAO/VAP-1; from tissue; host or cells: human subcutaneous abdominal adipose tissue (hAT), crude homogenate
T1 sequence (Q16853 1-763): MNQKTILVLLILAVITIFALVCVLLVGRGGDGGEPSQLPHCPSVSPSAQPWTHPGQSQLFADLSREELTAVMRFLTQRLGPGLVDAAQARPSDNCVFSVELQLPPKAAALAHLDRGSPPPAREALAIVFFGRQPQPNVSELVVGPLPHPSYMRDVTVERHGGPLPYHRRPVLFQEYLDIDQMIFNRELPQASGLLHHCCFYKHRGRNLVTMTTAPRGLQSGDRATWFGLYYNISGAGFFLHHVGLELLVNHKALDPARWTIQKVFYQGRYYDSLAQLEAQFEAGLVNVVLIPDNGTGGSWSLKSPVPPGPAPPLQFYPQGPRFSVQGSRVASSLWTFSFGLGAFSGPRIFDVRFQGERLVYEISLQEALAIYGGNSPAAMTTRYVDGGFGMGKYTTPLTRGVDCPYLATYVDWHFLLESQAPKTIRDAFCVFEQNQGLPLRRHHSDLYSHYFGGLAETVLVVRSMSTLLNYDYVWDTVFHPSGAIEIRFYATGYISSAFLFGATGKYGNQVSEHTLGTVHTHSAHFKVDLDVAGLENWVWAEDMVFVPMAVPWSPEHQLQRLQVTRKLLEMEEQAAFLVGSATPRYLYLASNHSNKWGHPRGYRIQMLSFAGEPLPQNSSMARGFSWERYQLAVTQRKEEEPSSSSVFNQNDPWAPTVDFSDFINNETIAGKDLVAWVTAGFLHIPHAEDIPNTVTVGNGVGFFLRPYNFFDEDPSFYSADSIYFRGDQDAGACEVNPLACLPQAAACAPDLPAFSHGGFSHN
Description: as §3
Figure 6 Influence of phenolic compounds and MAO inhibitors or SSAO inhibitors on benzylamine oxidation by hAT. (a) Thirty-minute oxidation of 1 mM [^14C]-benzylamine by homogenates generated amounts of radiolabelled benzaldehyde that were separated by extraction as described in Materials and Methods and set at 100% signal (control), while 0% corresponded to the extractible radioactivity at t0. The reference MAO inhibitors (pargyline) or SSAO (semicarbazide) inhibitors were present, separately or in combination at 1 mM, […] before the addition of the radiolabelled substrate. […] Each point is the mean ± SEM of 8 homogenates.

SSAO = target: T2, SSAO (Homo sapiens, UniProt Q16853); assay: Amplex Red fluorometric detection of benzylamine-induced hydrogen peroxide release in human adipose tissue homogenates; type: biochemical; conditions: for effect on benzylamine-induced H2O2 release: tested agent at 1 mM, 1 mM benzylamine, hAT homogenates, Amplex Red
T2 construct: benzylamine oxidation by hAT preparations, naturally rich in SSAO/VAP-1; from tissue; host or cells: human subcutaneous abdominal adipose tissue (hAT), crude homogenate
T2 sequence (Q16853 1-763): T1 sequence (Q16853 1-763)
Description: as §1, §2
Fluorescence readouts after 30 min incubation were substracted from corresponding values at t0 and net increase was set at 100% for 1 mM benzylamine alone. (a) Pargyline (MAO, dark squares) or semicarbazide (SSAO inhibitor, open squares) was present at indicated final concentrations, while their combination was tested at 1 mM (P + S, black triangle). Mean ± SEM of at least 6 homogenates. (b) The phenolic compounds were tested in parallel at the indicated final concentrations. Means ± SEM of 8 to 12 homogenates.

human adipocytes = assay: [3H]-2-deoxy-glucose uptake in freshly isolated adipocytes; type: cell-based; conditions: phenolic compound 100 μM (P + S 1 mM each), benzylamine stimulation, 45 min incubation
Description: To determine glucose transport activity, hAT was grossly minced and digested at 37°C under shaking in 20 mL of Krebs-Ringer medium containing 0.015 mg/mL liberase (type TM, Roche Diagnostics), 15 mM sodium bicarbonate, 10 mM HEPES, and 3.5% bovine serum albumin. Buoyant adipocytes were separated by filtration through nylon screen and carefully washed in the same medium at pH 7.4 without liberase to obtain adipocyte suspensions as already described. Freshly isolated adipocytes were incubated for 45 min with the tested agents just before [^3H]-2-deoxy-glucose uptake assays (PerkinElmer) performed in 10 min at 37°C in plasticware as already described.
Figure 9 Effects of phenolic compounds, benzylamine, and insulin on glucose transport in human adipocytes. Freshly isolated adipocytes were incubated for 45 min without (basal) or with insulin 100 nM (ins.) or with benzylamine and phenolic compounds at the indicated doses. Then 2-DG uptake assays were performed on 10 min as detailed in Section 2. […] Basal, insulin-stimulated, or benzylamine-stimulated 2-DG uptake was tested without (no addition, open columns) or with pargyline + semicarbazide at 1 mM each (P + S, dark columns). Mean ± SEM of 39 cases. Different from basal alone at ^### P < 0.001. Different from benzylamine alone at ^∗∗∗ P < 0.001. (b) Insulin was used as the agent of reference for maximal transport stimulation, set at 100%. Benzylamine was tested at 1 mM alone (control, open column) or in the presence of 100 μM of the indicated phenolic compounds. Mean ± SEM of 7 observations. Different from benzylamine alone at ^∗ P < 0.05 and ^∗∗ P < 0.01.

[3] = Amplex Red-based fluorescence of 5 μM hydrogen peroxide without biological material; conditions: read-out: EC50 for lowering the fluorescent signal elicited by 5 μM hydrogen peroxide; without any human biological material, Amplex Red chromogenic mixture
Description: as §2
Figure 4 Influence of amine oxidase substrates or inhibitors and phenolic compounds on fluorescent-based detection of hydrogen peroxide. The chromogenic mixture used for Amplex Red-based fluorometric detection of hydrogen peroxide was incubated with 5 μM H2O2 alone (control set at 100%) or in the presence of the indicated final concentrations of tested chemicals. […] Means ± SEM of 7 measurements without any human material.

MAO-A = tested on: MAO-A; set-up: method as in PMID 19013512; conditions: at 10-100 μM, peroxidase-based detection of hydrogen peroxide; cited from earlier work

SMILES	effect on [14C]-tyramine oxidation (MAO [2])	effect on SSAO-mediated [14C]-benzylamine oxidation (SSAO/VAP-1)	effect on benzylamine-induced H2O2 release (SSAO)	effect on benzylamine-stimulated deoxyglucose uptake (human adipocytes)	EC50 [3]	other results
NNC(N)=O [semicarbazide]	virtually unable to abolish this activity	eradicated the generation of labelled benzaldehyde	inhibited	–	–	effect on tyramine-induced H2O2 release (MAO [1]): totally inefficient; proportion of benzylamine-induced H2O2 signal left unaltered (SSAO; 1 mM semicarbazide alone or with 1 mM pargyline, 1 mM benzylamine = 100%): 20% and 15–20%
C#CCN(C)Cc1ccccc1 [pargyline]	inhibited	could not prevent this type of amine metabolism	resistant	–	–	proportion of tyramine-induced H2O2 production left unaltered (MAO [1]; 1 mM pargyline alone or with 1 mM semicarbazide, 1 mM tyramine = 100%): approximately 30%; effect on tyramine-induced H2O2 release (MAO [1]): inhibited dose-dependently
COc1cc(/C=C/c2ccc(O)cc2)cc(OC)c1 [pterostilbene]	did not abolish enzyme activity	without preventing benzylamine degradation	impaired partially the benzylamine-induced signal	counteracted the effect of 1 mM benzylamine	5.2 µM	–
O=c1c(O)c(-c2ccc(O)c(O)c2)oc2cc(O)cc(O)c12 [quercetin]	–	without preventing benzylamine degradation	impaired partially the benzylamine-induced signal	counteracted the effect of 1 mM benzylamine	2 µM	MAO-A inhibition, in words (MAO-A): inhibit MAO-A in a complete manner
NCCc1ccc(O)cc1 [tyramine, tyramine hydrochloride]	–	–	–	–	–	effect on hydrogen peroxide production by hAT preparations (MAO [1]; 1 mM tyramine as substrate, 30 min, versus basal): to a lesser extent, significantly increased the amount of detected hydrogen peroxide
NCc1ccccc1 [benzylamine, benzylamine hydrochloride]	–	–	–	–	–	effect on hydrogen peroxide production by hAT preparations (SSAO; 1 mM benzylamine as substrate, 30 min, versus basal): significantly increased the amount of detected hydrogen peroxide
O=C(O)/C=C/c1ccc(O)c(O)c1 [caffeic acid]	did not abolish enzyme activity	without preventing benzylamine degradation	abolished benzylamine-induced signal	No clear-cut inhibition	3.5 µM	–
Oc1ccc(/C=C/c2cc(O)cc(O)c2)cc1 [resveratrol, trans-resveratrol]	–	without preventing benzylamine degradation	abolished benzylamine-induced signal	counteracted the effect of 1 mM benzylamine	–	–
